Broadly, the log P is the decadic logarithm of the partition coefficient of the neutral form, usually between octanol and water. High values mean a more lipophilic compound, low ones a more hydrophilic compound.

The first series is described as follows: Determination of the logP values by HPLC on a reverse-phase column (C 18). As to conditions: HPLC on a reverse-phase column (C 18); separated α/β isomers. Type of series: physicochemical. Here is the method:
Determination of the logP Values
The logP values given in the table were determined in accordance with EEC Directive 79/831 Annex V.A8 by HPLC (high performance liquid chromatography) on a reverse-phase column (C 18). Temperature: 55° C.
Mobile phases for the determination in the acidic range (pH 3.4):
Mobile phase A: acetonitrile+1 ml of formic acid/liter. Mobile phase B: water+0.9 ml of formic acid/liter.
Gradient: from 10% mobile phase A/90% mobile phase B to 95% mobile phase A/5% mobile phase B over 4.25 min.
Calibration was carried out using unbranched alkan-2-ones (having 3 to 16 carbon atoms) with known logP values (determination of the logP values by the retention times using linear interpolation between two successive alkanones). The lambda max values were determined in the maxima of the chromatographic signals using the UV spectra from 200 nm to 400 nm.
Regarding `CCc1cc(C)cc(C)c1C1=C(O)C2(CCC3(CCCO3)CC2)OC1=O` (single isomer, unassigned) [Example I-2-a-15], the “log P*” value was determined as 3.21.

Regarding `Cc1cc(C)c(-c2ccc(Cl)cc2)cc1C1=C(O)C2(CCC3(CCCO3)CC2)OC1=O` (centres unmarked) [Example I-2-a-26], the “log P*” value is 4.15.

On to `Cc1ccc(-c2ccc(F)cc2)c(C)c1C1=C(O)C2(CCC3(CCCO3)CC2)OC1=O` (centres unmarked) [Example I-2-a-46], for which the “log P*” value is 3.69.

For the molecule `Cc1cc(C)c(-c2ccc(Cl)cc2)c(C)c1C1=C(O)C2(CCC3(CCCO3)CC2)OC1=O` (single isomer, unassigned) [Example I-2-a-43], the “log P*” value is on record as 4.32.

Turning to `Cc1ccc(C)c(C2=C(O)C3(CCC4(CCCO4)CC3)OC2=O)c1` (single isomer, unassigned) [Example I-2-a-2], the “log P*” value was determined as 2.73.

For `CCc1cc(C)cc(CC)c1C1=C(O)C2(CCC3(CCCO3)CC2)OC1=O` (single isomer, unassigned) [Example I-2-a-17], the “log P*” value is recorded as 3.47.

Turning to `COc1cccc(C)c1C1=C(O)C2(CCC3(CCCO3)CC2)OC1=O` (single isomer, unassigned) [Example I-2-a-34], the “log P*” value is given as 2.05.

Regarding `CCc1cc(Cl)cc(CC)c1C1=C(O)C2(CCC3(CCCO3)CC2)OC1=O` (single isomer, unassigned) [Example I-2-a-8], the “log P*” value was determined as 3.09.

Turning to `Cc1cc(C)c(C2=C(O)C3(CCC4(CCCO4)CC3)OC2=O)c(C)c1` (single isomer, unassigned) [Example I-2-a-4], the “log P*” value was 2.52.

`Cc1ccc(-c2ccc(F)cc2)cc1C1=C(O)C2(CCC3(CCCO3)CC2)OC1=O` (centres unmarked) [Example I-2-a-22]: the “log P*” value was found to be 3.0.

With `CCc1cc(Br)cc(C)c1C1=C(O)C2(CCC3(CCCO3)CC2)OC1=O` (single isomer, unassigned) [Example I-2-a-29], the “log P*” value was found to be 3.22.

For the molecule `Cc1cc(C)c(-c2ccc(Cl)cc2)c(C)c1C1=C(O)C2(CCC3(CCCO3)CC2)OC1=O` (single isomer, unassigned) [Example I-2-a-42], the “log P*” value is 3.79.

For `Cc1cc(C)c(C2=C(O)C3(CCC4(CCCO4)CC3)OC2=O)c(C)c1` (single isomer, unassigned) [Example I-2-a-5], the “log P*” value worked out at 3.00.

On to `CCc1cc(Cl)cc(C)c1C1=C(O)C2(CCC3(CCCO3)CC2)OC1=O` (single isomer, unassigned) [Example I-2-a-45], for which the “log P*” value was 3.34.

On to `COc1cc(C)cc(C)c1C1=C(O)C2(CCC3(CCCO3)CC2)OC1=O` (single isomer, unassigned) [Example I-2-a-10], for which the “log P*” value is listed as 2.28.

As to `Cc1ccc(-c2ccc(Cl)cc2)cc1C1=C(O)C2(CCC3(CCCO3)CC2)OC1=O` (centres unmarked) [Example I-2-a-24], the “log P*” value was 3.32.

Take `Cc1ccc(-c2ccc(Cl)cc2)c(C)c1C1=C(O)C2(CCC3(CCCO3)CC2)OC1=O` (centres unmarked) [Example I-2-a-18]: the “log P*” value came to 3.52.

As to `Cc1cc(C)c(-c2ccc(Cl)cc2)cc1C1=C(O)C2(CCC3(CCCO3)CC2)OC1=O` (centres unmarked) [Example I-2-a-27], the “log P*” value is listed as 3.60.

With `CCc1cc(Cl)c(C2=C(O)C3(CCC4(CCCO4)CC3)OC2=O)c(Br)c1` (single isomer, unassigned) [Example I-2-a-38], the “log P*” value was 2.79.

As for `Cc1cc(C2=C(O)C3(CCC4(CCCO4)CC3)OC2=O)c(Cl)cc1Cl` (single isomer, unassigned) [Example I-2-a-40], the “log P*” value is recorded as 2.60.

As for `Cc1ccc(-c2ccc(Cl)cc2)cc1C1=C(O)C2(CCC3(CCCO3)CC2)OC1=O` (centres unmarked) [Example I-2-a-25], the “log P*” value amounted to 3.87.

For the molecule `Cc1cc(C)c(C2=C(O)C3(CCC4(CCCO4)CC3)OC2=O)c(Br)c1` (single isomer, unassigned) [Example I-2-a-33], the “log P*” value amounted to 2.95.

Regarding `CCc1cc(Br)cc(Cl)c1C1=C(O)C2(CCC3(CCCO3)CC2)OC1=O` (single isomer, unassigned) [Example I-2-a-36], the “log P*” value came to 2.77.

For the molecule `Cc1ccc(-c2ccc(Cl)c(Cl)c2)cc1C1=C(O)C2(CCC3(CCCO3)CC2)OC1=O` (centres unmarked) [Example I-2-a-12], the “log P*” value is listed as 3.74.

For `Cc1ccc(C)c(C2=C(O)C3(CCC4(CCCO4)CC3)OC2=O)c1` (single isomer, unassigned) [Example I-2-a-3], the “log P*” value was determined as 2.29.

Take `CCc1cc(Br)cc(C)c1C1=C(O)C2(CCC3(CCCO3)CC2)OC1=O` (single isomer, unassigned) [Example I-2-a-6]: the “log P*” value was found to be 3.44.

For `O=C1OC2(CCC3(CCCO3)CC2)C(O)=C1c1cc(-c2ccc(Cl)cc2)ccc1Cl` (centres unmarked) [Example I-2-a-20], the “log P*” value was 3.25.

Turning to `CCc1cc(Cl)cc(C)c1C1=C(O)C2(CCC3(CCCO3)CC2)OC1=O` (single isomer, unassigned) [Example I-2-a-44], the “log P*” value came to 2.82.

With `Cc1cc(C)c(C2=C(O)C3(CCC4(CCCO4)CC3)OC2=O)cc1C` (single isomer, unassigned) [Example I-2-a-49], the “log P*” value came out at 2.54.

Turning to `Cc1ccc(-c2ccc(Cl)c(Cl)c2)cc1C1=C(O)C2(CCC3(CCCO3)CC2)OC1=O` (centres unmarked) [Example I-2-a-13], the “log P*” value turned out to be 4.24.

As to `CCc1cc(Br)cc(C)c1C1=C(O)C2(CCC3(CCCO3)CC2)OC1=O` (single isomer, unassigned) [Example I-2-a-7], the “log P*” value turned out to be 2.94.

Consider `Cc1cc(C)c(C2=C(O)C3(CCC4(CCCO4)CC3)OC2=O)cc1C` (single isomer, unassigned) [Example I-2-a-48], for which the “log P*” value was 2.99.

`CCc1cc(C)cc(Br)c1C1=C(O)C2(CCC3(CCCO3)CC2)OC1=O` (single isomer, unassigned) [Example I-2-a-28]: the “log P*” value turned out to be 2.73.

Staying with this series, now noted: HPLC, reverse-phase C 18, acidic range (pH 3.4), 55° C.
`CCOC(=O)OC1=C(c2c(CC)cc(C)cc2CC)C(=O)OC12CCC1(CCCO1)CC2` (centres unmarked) [Example I-2-c-4]: the “log P” value came to 5.28.

As for `CCOC(=O)OC1=C(c2c(C)cc(C)cc2C)C(=O)OC12CCC1(CCCO1)CC2` (centres unmarked) [Example I-2-c-2], the “log P” value turned out to be 4.69.

The same series, now with this note: compounds of formula (I-2-b).
In the case of `Cc1ccc(-c2ccc(F)cc2)cc1C1=C(OC(=O)C(C)C)C2(CCC3(CCCO3)CC2)OC1=O` (centres unmarked) [Example I-2-b-10], the “log P*” value worked out at 5.38.

For the molecule `CCc1cc(C)cc(CC)c1C1=C(OC(=O)C(C)C)C2(CCC3(CCCO3)CC2)OC1=O` (centres unmarked) [Example I-2-b-22], the “log P*” value is 5.17.

With `Cc1cc(C)c(C2=C(OC(=O)C(C)C)C3(CCC4(CCCO4)CC3)OC2=O)c(C)c1` (centres unmarked) [Example I-2-b-7], the “log P*” value worked out at 4.52.

Consider `Cc1ccc(-c2ccc(Cl)cc2)c(C)c1C1=C(OC(=O)C(C)(C)C)C2(CCC3(CCCO3)CC2)OC1=O` (centres unmarked) [Example I-2-b-16], for which the “log P*” value is given as 6.09.

With `CC(C)C(=O)OC1=C(c2cc(-c3ccc(Cl)cc3)ccc2Cl)C(=O)OC12CCC1(CCCO1)CC2` (centres unmarked) [Example I-2-b-12], the “log P*” value stood at 5.26.

Regarding `CCc1cc(C)cc(CC)c1C1=C(OC(=O)C(C)(C)C)C2(CCC3(CCCO3)CC2)OC1=O` (centres unmarked) [Example I-2-b-25], the “log P*” value was 6.25.

`Cc1ccc(-c2ccc(Cl)cc2)cc1C1=C(OC(=O)C(C)C)C2(CCC3(CCCO3)CC2)OC1=O` (centres unmarked) [1-2-b-11]: the “log P*” value stood at 5.86.

For the molecule `CCc1cc(C)cc(CC)c1C1=C(OC(=O)C(C)(C)C)C2(CCC3(CCCO3)CC2)OC1=O` (centres unmarked) [Example I-2-b-23], the “log P*” value was found to be 5.62.

`Cc1ccc(-c2ccc(F)cc2)cc1C1=C(OC(=O)C(C)C)C2(CCC3(CCCO3)CC2)OC1=O` (centres unmarked) [Example I-2-b-9]: the “log P*” value worked out at 4.83.

Regarding `COc1cccc(C)c1C1=C(OC(=O)C(C)(C)C)C2(CCC3(CCCO3)CC2)OC1=O` (centres unmarked) [Example I-2-b-19], the “log P*” value came to 4.16.

As for `COc1cccc(C)c1C1=C(OC(=O)C(C)C)C2(CCC3(CCCO3)CC2)OC1=O` (centres unmarked) [Example I-2-b-20], the “log P*” value was determined as 4.25.

For `COc1cccc(C)c1C1=C(OC(=O)C(C)C)C2(CCC3(CCCO3)CC2)OC1=O` (centres unmarked) [Example I-2-b-18], the “log P*” value was 3.75.

Regarding `Cc1ccc(C)c(C2=C(OC(=O)C(C)C)C3(CCC4(CCCO4)CC3)OC2=O)c1` (centres unmarked) [Example I-2-b-5], the “log P*” value is 4.22.

Regarding `Cc1cc(C)c(C2=C(OC(=O)C(C)(C)C)C3(CCC4(CCCO4)CC3)OC2=O)c(C)c1` (centres unmarked) [Example I-2-b-14], the “log P*” value is 4.96.

Take `Cc1cc(C)c(-c2ccc(Cl)cc2)cc1C1=C(OC(=O)C(C)C)C2(CCC3(CCCO3)CC2)OC1=O` (centres unmarked) [Example I-2-b-3]: the “log P*” value is on record as 5.64.

Regarding `Cc1ccc(-c2ccc(Cl)cc2)cc1C1=C(OC(=O)C(C)C)C2(CCC3(CCCO3)CC2)OC1=O` (centres unmarked) [Example I-2-b-13], the “log P*” value was 5.29.

Regarding `Cc1cc(C)c(-c2ccc(Cl)cc2)cc1C1=C(OC(=O)C(C)C)C2(CCC3(CCCO3)CC2)OC1=O` (centres unmarked) [Example I-2-b-4], the “log P*” value was determined as 6.24.

With `Cc1cc(C)c(C2=C(OC(=O)C(C)(C)C)C3(CCC4(CCCO4)CC3)OC2=O)c(C)c1` (centres unmarked) [Example I-2-b-17], the “log P*” value was 5.58.

Take `Cc1ccc(C)c(C2=C(OC(=O)C(C)C)C3(CCC4(CCCO4)CC3)OC2=O)c1` (centres unmarked) [Example I-2-b-6]: the “log P*” value is on record as 4.78.

In the case of `Cc1cc(C)c(C2=C(OC(=O)C(C)C)C3(CCC4(CCCO4)CC3)OC2=O)c(C)c1` (centres unmarked) [Example I-2-b-8], the “log P*” value was determined as 5.12.

The series is the same for the next values; noted with them: reverse-phase HPLC column (C 18); HPLC, reverse-phase C 18, acidic range (pH 3.4), 55° C.; read-out: log P.
On to `CCOC(=O)OC1=C(c2c(C)cc(C)cc2C)C(=O)O[C@]12CC[C@]1(CCCO1)CC2` [Example I-2-c-1], for which the chromatographic logP turned out to be 4.09.
